Experimental data reported in patent US20080076927A1, “Synthetic Methods and Intermediates for Stereoisomeric Compounds Useful for the Treatment of Gastrointestinal and Central Nervous System Disorders” (ARYx Therapeutics, Inc., priority 2005, published 2008).
Where two headings read alike, the source gives them in different places. Each block holds one compound with its values, some of them ahead of it.

Experiments:
[1] = tested on: esterases in human plasma
[2] = format: in vitro ADME, human; conditions: for dependence of metabolism on NADPH / CYP450: microsomes
Method: ATI-7505 (2 μM) was incubated with human microsomal protein (1 mg) in the presence or absence of NADPH regenerating system (cofactor).
Thus the major biotransformation pathway for ATI-7505 occurs independently of CYP450 enzymes.
The metabolism of these compounds was studied in pooled human microsomes in the presence and absence of the Cytochrome P-450 cofactor NADPH and both the disappearance of parent and the appearance of the corresponding acid metabolite, i.e., the corresponding compound-II isomer, monitored with time.
In this experiment, the amount of substrate (compounds III, IV, V, and VI) remaining in the reaction after 5, 60, and 90 minutes were evaluated by a tandem HPLC-MS method. This remaining amount was correlated with the appearance of the metabolite compound II.

5-HT4 Receptor [3] = target: T1, 5-HT4 Receptor (Cavia porcellus, UniProt O70528); experiment: 5-HT4 receptor binding of the isomers of compound I, radiolabel displacement method; conditions: read-out: binding constant Ki
T1 sequence (O70528 whole entry): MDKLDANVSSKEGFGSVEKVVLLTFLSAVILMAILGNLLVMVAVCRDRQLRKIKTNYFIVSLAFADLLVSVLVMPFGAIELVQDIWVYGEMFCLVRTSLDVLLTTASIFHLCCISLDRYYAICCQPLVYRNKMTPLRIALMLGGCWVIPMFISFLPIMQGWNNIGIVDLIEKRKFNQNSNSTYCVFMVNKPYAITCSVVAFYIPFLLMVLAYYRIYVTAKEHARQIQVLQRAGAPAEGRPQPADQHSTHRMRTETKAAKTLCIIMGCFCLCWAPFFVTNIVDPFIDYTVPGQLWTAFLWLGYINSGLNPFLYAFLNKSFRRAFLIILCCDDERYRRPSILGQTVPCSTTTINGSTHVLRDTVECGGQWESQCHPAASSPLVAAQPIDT

[4] = Metabolism in Fresh Human Blood; format: in vitro ADME; conditions: for Half-life: 100 µM
Method: Fresh blood was collected into heparinized tubes from 3 human donors and blood was stored on ice until incubation. Separate aliquots of blood from each donor were pipetted into 1.5 mL centrifuge tubes and the tubes were pre-incubated in a shaking water bath at 37° C. for 5 minutes. The reaction was initiated by the addition of 10 μL of the appropriate test compound stock to each tube (final concentration=100 μM). Incubations were quenched after 0, 5, 15, 30 and 60 minutes, by the addition of acetonitrile ([…]), centrifuged at 12,000 rpm for 2 minutes and the supernatant analyzed on an Agilent 1100 HPLC system. Separations were accomplished on a Keystone Intersil ODS2, 250×4.6 mm, […] column. The aqueous mobile phase consisted of 20 mM ammonium acetate buffer (pH 5.7) and the organic phase acetonitrile. A gradient was used: initial condition consisted of 20% acetonitrile for 1 minute. […] The system was then recycled to initial conditions over the course of 1 minute and held there for 4 minutes before the next injection. […] The results were expressed as amount of initial compound remaining and data subjected to kinetic analysis using WinNonLin. The half-lives for the individual compounds are given below in Table 6.

2D6 = 2D6 (Homo sapiens, UniProt P10635)
Sequence of 2D6 (P10635 whole entry): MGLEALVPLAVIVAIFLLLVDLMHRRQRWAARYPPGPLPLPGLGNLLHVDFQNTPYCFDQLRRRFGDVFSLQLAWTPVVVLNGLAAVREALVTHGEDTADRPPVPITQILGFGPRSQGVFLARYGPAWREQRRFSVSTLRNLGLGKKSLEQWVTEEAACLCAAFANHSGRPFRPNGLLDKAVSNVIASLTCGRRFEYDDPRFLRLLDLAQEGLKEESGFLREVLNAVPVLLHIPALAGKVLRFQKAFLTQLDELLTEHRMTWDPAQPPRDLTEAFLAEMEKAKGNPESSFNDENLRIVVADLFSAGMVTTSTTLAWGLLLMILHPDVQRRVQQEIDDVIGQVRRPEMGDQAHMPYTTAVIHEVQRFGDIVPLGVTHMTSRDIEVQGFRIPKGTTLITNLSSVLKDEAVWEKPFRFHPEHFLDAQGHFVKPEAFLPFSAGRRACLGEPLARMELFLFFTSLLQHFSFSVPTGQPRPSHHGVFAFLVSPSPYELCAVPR

2C9 = 2C9 (Homo sapiens, UniProt P11712)
Sequence of 2C9 (P11712 whole entry, the tested form may be a part): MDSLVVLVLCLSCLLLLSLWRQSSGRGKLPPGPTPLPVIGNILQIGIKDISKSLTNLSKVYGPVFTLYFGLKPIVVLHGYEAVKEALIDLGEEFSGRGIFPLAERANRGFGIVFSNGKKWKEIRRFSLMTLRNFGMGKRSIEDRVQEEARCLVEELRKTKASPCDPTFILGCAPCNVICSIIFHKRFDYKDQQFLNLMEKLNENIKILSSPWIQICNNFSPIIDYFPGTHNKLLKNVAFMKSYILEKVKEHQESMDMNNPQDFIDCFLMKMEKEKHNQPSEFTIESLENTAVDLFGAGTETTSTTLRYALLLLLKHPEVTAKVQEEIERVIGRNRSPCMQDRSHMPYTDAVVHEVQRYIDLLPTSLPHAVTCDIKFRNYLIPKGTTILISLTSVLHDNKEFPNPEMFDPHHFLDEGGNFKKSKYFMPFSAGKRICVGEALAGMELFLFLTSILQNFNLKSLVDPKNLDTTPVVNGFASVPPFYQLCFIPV

[5] = tested on: isolated, perfused guinea pig hearts
CYP3A4 = CYP3A4 (Homo sapiens, UniProt P08684); conditions: recombinant enzyme
Sequence of CYP3A4 (P08684 whole entry): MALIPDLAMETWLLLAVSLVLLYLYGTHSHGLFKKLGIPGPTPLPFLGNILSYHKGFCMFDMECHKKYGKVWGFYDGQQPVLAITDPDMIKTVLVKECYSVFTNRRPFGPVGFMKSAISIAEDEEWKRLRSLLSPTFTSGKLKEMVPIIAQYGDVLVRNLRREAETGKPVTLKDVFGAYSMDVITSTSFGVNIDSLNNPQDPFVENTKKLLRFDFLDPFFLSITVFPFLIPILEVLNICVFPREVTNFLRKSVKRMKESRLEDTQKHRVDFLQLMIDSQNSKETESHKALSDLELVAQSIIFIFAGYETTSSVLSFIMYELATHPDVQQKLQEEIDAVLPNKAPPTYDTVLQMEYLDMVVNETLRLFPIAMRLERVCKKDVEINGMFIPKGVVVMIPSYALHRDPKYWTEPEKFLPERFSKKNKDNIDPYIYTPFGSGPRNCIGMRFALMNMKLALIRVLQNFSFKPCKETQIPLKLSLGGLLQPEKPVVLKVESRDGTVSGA

5-HT4 Receptor [6] = target: T1, 5-HT4 Receptor; experiment: 5-HT4 Receptor Binding, Guinea Pig Striatum, [3H]GR113808; design: Guinea Pig Striatum; from tissue; host or cells: guinea pig striatum
human 5-HT4 receptor = target: T2, human 5-HT4 receptor (Homo sapiens, UniProt Q13639); experiment: adenylyl cyclase stimulation in cells engineered to stably express human 5-HT4 receptor; format: cell-based; conditions: for Efficacy % of 5HT (serotonin): estimated Emax relative to 5-HT
T2 construct: expressed in transfected cells
T2 sequence (Q13639 whole entry): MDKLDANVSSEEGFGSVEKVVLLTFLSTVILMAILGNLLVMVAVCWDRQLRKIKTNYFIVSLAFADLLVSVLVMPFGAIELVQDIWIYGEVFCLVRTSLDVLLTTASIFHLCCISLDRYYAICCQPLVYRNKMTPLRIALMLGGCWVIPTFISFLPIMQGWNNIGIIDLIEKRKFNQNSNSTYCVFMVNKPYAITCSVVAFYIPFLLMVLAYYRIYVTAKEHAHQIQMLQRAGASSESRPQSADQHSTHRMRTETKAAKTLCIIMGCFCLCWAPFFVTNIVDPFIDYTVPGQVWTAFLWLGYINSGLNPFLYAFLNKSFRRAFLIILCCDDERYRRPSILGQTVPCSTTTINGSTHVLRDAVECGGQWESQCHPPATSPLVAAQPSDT
Text: ARYx performed in vitro assays based on adenylyl cyclase stimulation in cells engineered to stably express human 5-HT4 receptor. […] [table]

fasted, conscious dogs = conditions: for antral and small bowel contractility, colonic motor activity / prokinetic effects in the dog gut: IV and PO; for migrating motor complex (MMC) characteristics: antrum, proximal, mid and distal small intestine
fed dogs = experiment: gastric emptying in fed conscious dogs (time of MMC return); conditions: IV infusion over 20 minutes before a solid meal
[7] = target: T3, human IKr (HERG K+ channels) (Homo sapiens, UniProt Q12809); experiment: whole cell patch-clamp of IKr in HEK-293 cells expressing the HERG K+ channels; format: cell-based
T3 construct: expressed in transfected cells; host or cells: HEK-293
T3 sequence (Q12809 whole entry): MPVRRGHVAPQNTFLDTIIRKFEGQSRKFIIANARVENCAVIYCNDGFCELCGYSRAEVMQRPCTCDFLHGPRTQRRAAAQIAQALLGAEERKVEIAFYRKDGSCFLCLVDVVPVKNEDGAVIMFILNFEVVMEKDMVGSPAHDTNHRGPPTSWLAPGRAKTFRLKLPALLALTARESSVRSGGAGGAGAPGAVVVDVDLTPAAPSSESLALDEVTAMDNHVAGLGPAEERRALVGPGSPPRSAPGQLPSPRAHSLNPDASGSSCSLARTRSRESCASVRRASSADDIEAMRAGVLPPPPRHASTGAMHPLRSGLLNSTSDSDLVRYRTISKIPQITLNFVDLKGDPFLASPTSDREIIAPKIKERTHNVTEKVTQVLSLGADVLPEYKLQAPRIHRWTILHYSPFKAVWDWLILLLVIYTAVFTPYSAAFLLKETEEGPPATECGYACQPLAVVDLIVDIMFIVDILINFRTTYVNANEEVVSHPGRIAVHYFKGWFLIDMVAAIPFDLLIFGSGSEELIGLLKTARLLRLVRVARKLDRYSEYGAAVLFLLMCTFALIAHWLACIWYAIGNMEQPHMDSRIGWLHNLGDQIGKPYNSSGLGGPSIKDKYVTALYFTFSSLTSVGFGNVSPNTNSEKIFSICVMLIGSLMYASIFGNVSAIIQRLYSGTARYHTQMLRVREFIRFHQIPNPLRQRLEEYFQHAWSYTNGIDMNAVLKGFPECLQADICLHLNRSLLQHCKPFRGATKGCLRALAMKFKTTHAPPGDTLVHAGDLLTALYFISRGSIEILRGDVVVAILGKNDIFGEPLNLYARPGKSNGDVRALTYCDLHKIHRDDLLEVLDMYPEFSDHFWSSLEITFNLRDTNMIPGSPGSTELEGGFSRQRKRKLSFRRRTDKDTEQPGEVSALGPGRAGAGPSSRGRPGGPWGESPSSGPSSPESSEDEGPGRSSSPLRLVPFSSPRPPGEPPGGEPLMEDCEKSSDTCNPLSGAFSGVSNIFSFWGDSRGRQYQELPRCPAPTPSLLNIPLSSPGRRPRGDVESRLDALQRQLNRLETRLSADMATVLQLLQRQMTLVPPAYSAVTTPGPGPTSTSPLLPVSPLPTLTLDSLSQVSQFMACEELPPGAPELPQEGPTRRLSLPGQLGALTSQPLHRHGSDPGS

[8] = in vivo; cited from earlier work
[9] = July 1993 to December 1999; cited from earlier work
[10] = tested at 10, 100, 1,000, and 10,000 nM

Compound: COc1cc(N)c(Cl)cc1C(=O)N[C@H]1CCN(CCCCCC(=O)O[C@H]2CN3CCC2CC3)C[C@H]1OC [Compound III, (3R,4S,3′R)-6-[4-(4-Amino-5-chloro-2-methoxy-benzoylamino)-3-methoxy-piperidin-1-yl]-hexanoic acid 1-aza-bicyclo[2.2.2]oct-3-yl ester]
rate of metabolism by esterases in human plasma [1]: rapidly metabolized by esterases in human plasma
hydrolysis by esterase in human microsomes [2]: rapidly hydrolyzed by esterase
dependence of metabolism on NADPH / CYP450 ([2]; human): not dependent on CYP450
Ki (5-HT4 Receptor [3]): 28 nM
half-life at 100 µM ([4]; blood, Half-life (min)): 12 min

IC50 (5-HT4 Receptor [6]; Guinea Pig Striatum, [3H]GR113808 (0.70 nM), read-out: IC50): > 3000 nM
Ki (5-HT4 Receptor [6]; Guinea Pig Striatum, [3H]GR113808 (0.70 nM), read-out: Ki): > 500 nM
Compound: COc1cc(N)c(Cl)cc1C(=O)N[C@@H]1CCN(CCCCCC(=O)O)C[C@@H]1OC [ATI-7500, 6-((3S,4R)-4-(4-amino-5-chloro-2-methoxybenzamido)-3-methoxypiperidin-1-yl)hexanoic acid]
inhibitory activity against 2D6 (2D6; human): Neither ATI-7505 nor its primary metabolite, ATI-7500 displayed significant inhibitory activity
inhibitory activity against 2C9 (2C9): Neither ATI-7505 nor its primary metabolite, ATI-7500 displayed significant inhibitory activity
biotransformation in pooled human microsomes [2]: does not appear to be subject to further metabolism
modulation of cardiac electrophysiologic parameters [5]: entirely lacked electrophysiological activity
inhibitory activity against CYP3A4 (CYP3A4): Neither ATI-7505 nor its primary metabolite, ATI-7500 displayed significant inhibitory activity

Compound: COc1cc(N)c(Cl)cc1C(=O)N[C@H]1CCN(CCCCCC(=O)O[C@@H]2CN3CCC2CC3)C[C@H]1OC [Compound V]
rate of metabolism by esterases in human plasma [1]: undergo a much slower metabolism
hydrolysis by esterase in human microsomes [2]: quite stable with time
Ki (5-HT4 Receptor [3]): 72 nM
Half-life ([4]; blood): >60 min
half-life at 100 µM ([4]; blood, Half-life (min)): > 60 min

Compound: COc1cc(N)c(Cl)cc1C(=O)N[C@@H]1CCN(CCCCCC(=O)O[C@H]2CN3CCC2CC3)C[C@@H]1OC [ATI-7505, (R)-quinuclidin-3-yl 6-((3S,4R)-4-(4-amino-5-chloro-2-methoxybenzamido)-3-methoxypiperidin-1-yl)hexanoate]
inhibitory activity against 2D6 (2D6; human): Neither ATI-7505 nor its primary metabolite, ATI-7500 displayed significant inhibitory activity
inhibitory activity against 2C9 (2C9): Neither ATI-7505 nor its primary metabolite, ATI-7500 displayed significant inhibitory activity
rate of metabolism by esterases in human plasma [1]: rapidly metabolized by esterases in human plasma
hydrolysis by esterase in human microsomes [2]: rapidly hydrolyzed by esterase
biotransformation in pooled human microsomes ([2]; human, 2 µM): undergoes biotransformation to a single metabolite, ATI-7500
dependence of metabolism on NADPH / CYP450 ([2]; human): not dependent on CYP450
dependence of metabolism on NADPH / CYP450 [2]: not dependent on the presence of NADPH
5-HT4 receptor agonism (human 5-HT4 receptor): highly potent 5-HT4 receptor agonist
EC50 (human 5-HT4 receptor; Potency EC50, concentration causing 50% maximal increase in adenylyl cyclase activity, estimated, unit nM printed in b338 only): 4 nM
EC50 (human 5-HT4 receptor; Potency pEC50, negative logarithm of the EC50): 3.55 nM
Efficacy % of 5HT (serotonin) (human 5-HT4 receptor): 85%
EC50 fold lower than that of ATI-7500 (human 5-HT4 receptor; versus ATI-7500): approximately 100 fold
EC50 fold lower than that of cisapride (human 5-HT4 receptor; versus cisapride): approximately 10 fold
modulation of cardiac electrophysiologic parameters [5]: very weak modulator of cardiac electrophysiologic parameters
No Observed Effect Level (NOEL), Combined Parameters ([5]; combined set of 6 cardiac parameters): 1,000 nM
No Observed Effect Level (NOEL), AH Interval [5, 10]: >10,000 nM
No Observed Effect Level (NOEL), HV Interval [5, 10]: 1,000 nM
No Observed Effect Level (NOEL), MAPD90 [5, 10]: 1,000 nM
No Observed Effect Level (NOEL), QRS Interval [5, 10]: >10,000 nM
No Observed Effect Level (NOEL), QT Interval [5, 10]: 1,000 nM
No Observed Effect Level (NOEL), SA Interval [5, 10]: >10,000 nM
inhibitory activity against CYP3A4 (CYP3A4): Neither ATI-7505 nor its primary metabolite, ATI-7500 displayed significant inhibitory activity
antral and small bowel contractility, colonic motor activity (fasted, conscious dogs): dose-dependent stimulation of antral and small bowel contractility with relatively little effect on colonic motor activity
prokinetic effects in the dog gut (fasted, conscious dogs): caused prokinetic effects in the dog gut
MMC frequency in the proximal small intestine (fasted, conscious dogs; PO, relative to the controls): increased MMC frequency in the proximal small intestine relative to the controls
migrating motor complex (MMC) characteristics (fasted, conscious dogs): minimal effect
frequency of giant migrating contractions (GMC) (fasted, conscious dogs; dog, in vivo): small but significant (p<0.05) increase
potency relative to cisapride on a mg/kg-basis (fasted, conscious dogs; dog, in vivo): approximately twice as potent as cisapride
retrograde giant migrating contractions (RGC) (fasted, conscious dogs; dog, in vivo): not associated with the development of retrograde giant migrating contractions (RGC)
tolerability, side effects (fasted, conscious dogs; dog, in vivo): exhibited no side effects such as diarrhea, anorexia, or weight loss
Ki (5-HT4 Receptor [3]): 1.4 nM
half-life at 100 µM ([4]; fresh heparinized human blood, Mean ± SD of 3 subjects, 100 μM, 37° C., read-out: Half-life): 8.59 ± 0.077 min
half-life at 100 µM ([4]; fresh heparinized human blood, Subject 1, 100 μM, 37° C., read-out: Half-life): 8.47 min
half-life at 100 µM ([4]; fresh heparinized human blood, Subject 2, 100 μM, 37° C., read-out: Half-life): 8.61 min
half-life at 100 µM ([4]; fresh heparinized human blood, Subject 3, 100 μM, 37° C., read-out: Half-life): 8.58 min
time of MMC return as an index of gastric emptying (fed dogs): significantly shortened the time of MMC return
IC50 (5-HT4 Receptor [6]): 8.3 nM
Ki (5-HT4 Receptor [6]): 1.4 nM
nH, Hill coefficient (5-HT4 Receptor [6]; Guinea Pig Striatum): 0.7
affinity for the 5-HT4 receptor, fold greater than cisapride (5-HT4 Receptor [6]; versus cisapride): 18 fold
affinity for the 5-HT4 receptor, fold greater than the major metabolite, the carboxylic acid (5-HT4 Receptor [6]; versus major metabolite of ATI-7505): at least 360 fold
IC50 [7]: 24500 nM
% IKr control (10,000 nM) ([7]; 10,000 nM, normalized to % control tail IKr): 78.0%

Compound: COc1cc(N)c(Cl)cc1C(=O)N[C@@H]1CCN(CCCCCC(=O)O[C@@H]2CN3CCC2CC3)C[C@@H]1OC [Compound VI, (3S,4R,3′S)-6-[4-(4-Amino-5-chloro-2-methoxy-benzoylamino)-3-methoxy-piperidin-1-yl]-hexanoic acid 1-aza-bicyclo[2.2.2]oct-3-yl ester]
rate of metabolism by esterases in human plasma [1]: undergo a much slower metabolism
hydrolysis by esterase in human microsomes [2]: quite stable with time
Ki (5-HT4 Receptor [3]): 3.4 nM
Half-life ([4]; blood): >60 min
half-life at 100 µM ([4]; blood, Half-life (min)): > 60 min

Compound: COc1cc(N)c(Cl)cc1C(=O)NC1CCN(CCCOc2ccc(F)cc2)CC1OC (stereo not shown) [Cisapride, reference compound]
inhibitory activity against 2D6 (2D6): significant inhibitory activity
Efficacy % of 5HT (serotonin) (human 5-HT4 receptor): 77%
No Observed Effect Level (NOEL), Combined Parameters ([5]; guinea pig): 10 nM
part of a dose metabolized by oxidative N-dealkylation or aromatic hydroxylation [8]: More than 90%
antral and small bowel contractility, colonic motor activity (fasted, conscious dogs): dose-dependent stimulation of antral and small bowel contractility with relatively little effect on colonic motor activity
prokinetic effects in the dog gut (fasted, conscious dogs): caused prokinetic effects in the dog gut
migrating motor complex (MMC) characteristics (fasted, conscious dogs): minimal effect
deaths reported [9]: 80
serious cardiac arrhythmias reportedly associated [9]: at least 341
nH, Hill coefficient (5-HT4 Receptor [6]; Guinea Pig Striatum): 0.8
% IKr control (10,000 nM) ([7]; human, 10000 nM): 0%
